In the oligonucleotide strings, read from the 5' end, every base follows the letter of its sugar. An asterisk marks phosphorothioate; unmarked linkages are phosphodiester. Other units and linkages are bracketed, terminal groups are in braces. A string of capitals states the bases alone. e = 2'-O-(2-methoxyethyl) (MOE); [5mC] = 5-methylcytosine
Tests used:
adipocytes = experiment: Triglyceride accumulation assay in adipocytes; assay type: cell-based, human; conditions: for Triglycerides: differentiating adipocytes day 10 post-induction, 24 hours after treatment
aP2 = aP2 mRNA expression in adipocytes (real-time PCR); assay type: cell-based, human; conditions: for AP2 (mRNA expression): adipocytes, 250 nM oligomeric compound, day nine post-transfection, relative to control (1.0); for aP2 mRNA: Table 75
HSL = HSL mRNA expression in adipocytes (real-time PCR); assay type: cell-based, human; conditions: for HSL (mRNA expression): adipocytes, 250 nM oligomeric compound, day nine post-transfection, relative to control (1.0)
Glut4 = Glut4 mRNA expression in adipocytes (real-time PCR); assay type: cell-based, human; conditions: for Glut4 (mRNA expression): adipocytes, 250 nM oligomeric compound, day nine post-transfection, relative to control (1.0)
PPARγ = PPARγ mRNA expression in adipocytes (real-time PCR); assay type: cell-based, human; conditions: for PPAR gamma (mRNA expression): adipocytes, 250 nM oligomeric compound, day nine post-transfection, relative to control (1.0); for PPAR gamma mRNA: differentiating adipocytes transfected with oligomeric compound; for PPAR-gamma mRNA: differentiating adipocytes day 10 post-induction, 24 hours after treatment
HuVECs = experiment: Endothelial tube formation assay in HuVECs; conditions: 75 nM oligomeric compound
[1] = adipocytes, 250 nM oligomeric compound, relative to control (1.0), Table 16
[2] = differentiating adipocytes transfected with oligomeric compound, Table 75
[3] = differentiating adipocytes transfected with oligomeric compound
[4] = Table 20, adipocyte differentiation assay as in Example 13
[5] = adipocytes, 250 nM oligomeric compound, relative to control (1.0), Table 15
[6] = 50 nM, differentiating adipocytes day 10 post-induction, 24 hours after treatment
[7] = 100 nM, differentiating adipocytes day 10 post-induction, 24 hours after treatment
[8] = 200 nM, differentiating adipocytes day 10 post-induction, 24 hours after treatment
[9] = 300 nM, differentiating adipocytes day 10 post-induction, 24 hours after treatment

327893 (antisense eA*eA*e[5mC]*e[5mC]*eA*e[5mC]*eA*e[5mC]*eA*eA*e[5mC]*e[5mC]*eT*eA*e[5mC]*eT*eA*e[5mC]*e[5mC]*eT*e[5mC]*eA) [compound 327893]
TG (triglyceride accumulation) (adipocytes; [1]): 0.95
AP2 (mRNA expression) (aP2; Table 16): 0.97
HSL (mRNA expression) (HSL; Table 16): 0.85
Glut4 (mRNA expression) (Glut4; Table 16): 1.47
PPAR gamma (mRNA expression) (PPARγ; Table 16): 1.03
% Activity Relative to UTC (tube formation) (HuVECs; Table 56): 100.0%

327895 (antisense eA*e[5mC]*eA*eA*eA*e[5mC]*eA*e[5mC]*e[5mC]*eA*eT*eT*eG*eT*e[5mC]*eA*e[5mC]*eA*e[5mC]*eT*e[5mC]*e[5mC]*eA) [compound 327895]
TG (triglyceride accumulation) (adipocytes; [2]): 76 percentage of untreated control (UTC)
aP2 mRNA (aP2; [3]): 90 percentage of untreated control (UTC)
HSL mRNA (HSL; [2]): 88 percentage of untreated control (UTC)
GLUT4 mRNA (Glut4; [2]): 76 percentage of untreated control (UTC)
PPAR gamma mRNA (PPARγ; Table 75): 86 percentage of untreated control (UTC)
% Activity Relative to UTC (tube formation) (HuVECs; Table 56): 100.0%

327896 (antisense eA*e[5mC]*eA*eG*eT*eT*e[5mC]*eT*eT*e[5mC]*eA*eA*e[5mC]*eT*eG*eG*e[5mC]*eA*eG*e[5mC]*eT*eT) [compound 327896]
TG (triglyceride accumulation) (adipocytes; [2]): 22 percentage of untreated control (UTC)
aP2 mRNA (aP2; [3]): 43 percentage of untreated control (UTC)
HSL mRNA (HSL; [2]): 37 percentage of untreated control (UTC)
GLUT4 mRNA (Glut4; [2]): 35 percentage of untreated control (UTC)
PPAR gamma mRNA (PPARγ; Table 75): 52 percentage of untreated control (UTC)
% Activity Relative to UTC (tube formation) (HuVECs; Table 56): 64.3%

327897 (antisense eA*e[5mC]*eA*eG*eG*e[5mC]*e[5mC]*eG*eG*eG*eA*e[5mC]*eA*eA*eG*eT*eG*e[5mC]*eA*eA*eT*eA) [compound 327897]
TG (triglyceride accumulation) (adipocytes; [2]): 28 percentage of untreated control (UTC)
aP2 mRNA (aP2; [3]): 62 percentage of untreated control (UTC)
HSL mRNA (HSL; [2]): 39 percentage of untreated control (UTC)
GLUT4 mRNA (Glut4; [2]): 32 percentage of untreated control (UTC)
PPAR gamma mRNA (PPARγ; Table 75): 66 percentage of untreated control (UTC)
% Activity Relative to UTC (tube formation) (HuVECs; Table 59): 40.0%

327899 (antisense e[5mC]*eA*eG*eT*eG*eA*eA*eT*eT*e[5mC]*eT*eA*e[5mC]*e[5mC]*eA*eG*eT*eG*e[5mC]*e[5mC]*eA*eT*eA) [compound 327899]
TG (triglyceride accumulation) (adipocytes; [2]): 25 percentage of untreated control (UTC)
aP2 mRNA (aP2; [3]): 47 percentage of untreated control (UTC)
HSL mRNA (HSL; [2]): 27 percentage of untreated control (UTC)
GLUT4 mRNA (Glut4; [2]): 14 percentage of untreated control (UTC)
PPAR gamma mRNA (PPARγ; Table 75): 62 percentage of untreated control (UTC)
% Activity Relative to UTC (tube formation) (HuVECs; Table 57): 34.5%

327900 (antisense e[5mC]*eT*eG*e[5mC]*e[5mC]*eT*eG*eT*e[5mC]*eT*eG*eT*eG*e[5mC]*e[5mC]*eT*eG*e[5mC]*eT*eG*eT) [compound 327900]
TG (triglyceride accumulation) (adipocytes; [2]): 26 percentage of untreated control (UTC)
aP2 mRNA (aP2; [3]): 32 percentage of untreated control (UTC)
HSL mRNA (HSL; [2]): 21 percentage of untreated control (UTC)
GLUT4 mRNA (Glut4; [2]): 12 percentage of untreated control (UTC)
PPAR gamma mRNA (PPARγ; Table 75): 55 percentage of untreated control (UTC)
% Activity Relative to UTC (tube formation) (HuVECs; Table 57): 55.2%

327901 (antisense eT*eG*eA*eG*e[5mC]*eT*eA*e[5mC]*eA*eG*eT*eG*e[5mC]*eT*eT*e[5mC]*eA*eT*e[5mC]*eT*e[5mC]*eA) [compound 327901]
Triglycerides (adipocytes; 50 nM): 85.3 % UTC
Triglycerides (adipocytes; 100 nM): 68.9 % UTC
Triglycerides (adipocytes; 200 nM): 34.0 % UTC
Triglycerides (adipocytes; 300 nM): 23.0 % UTC
TG (adipocytes; [4]): 0.54
TG (triglyceride accumulation) (adipocytes; [5]): 0.54
TG (triglyceride accumulation) (adipocytes; [1]): 0.53
AP2 mRNA (aP2; [6]): 78.3 % UTC
AP2 mRNA (aP2; [7]): 64.6 % UTC
AP2 mRNA (aP2; [8]): 39.0 % UTC
AP2 mRNA (aP2; [9]): 22.4 % UTC
AP2 (aP2; [4]): 0.42
AP2 (mRNA expression) (aP2; Table 15): 0.42
AP2 (mRNA expression) (aP2; Table 16): 0.47
HSL mRNA (HSL; [6]): 89.5 % UTC
HSL mRNA (HSL; [7]): 73.5 % UTC
HSL mRNA (HSL; [8]): 40.2 % UTC
HSL mRNA (HSL; [9]): 11.9 % UTC
HSL (HSL; [4]): 0.33
HSL (mRNA expression) (HSL; Table 15): 0.33
HSL (mRNA expression) (HSL; Table 16): 0.47
GLUT4 mRNA (Glut4; [6]): 74.2 % UTC
GLUT4 mRNA (Glut4; [7]): 49.7 % UTC
GLUT4 mRNA (Glut4; [8]): 32.8 % UTC
GLUT4 mRNA (Glut4; [9]): 17.4 % UTC
Glut4 (Glut4; [4]): 0.19
Glut4 (mRNA expression) (Glut4; Table 15): 0.19
Glut4 (mRNA expression) (Glut4; Table 16): 0.29
PPAR-gamma mRNA (PPARγ; 50 nM): 74.6 % UTC
PPAR-gamma mRNA (PPARγ; 100 nM): 70.8 % UTC
PPAR-gamma mRNA (PPARγ; 200 nM): 51.8 % UTC
PPAR-gamma mRNA (PPARγ; 300 nM): 39.3 % UTC
PPAR gamma (PPARγ; [4]): 0.30
PPAR gamma (mRNA expression) (PPARγ; Table 15): 0.30
PPAR gamma (mRNA expression) (PPARγ; Table 16): 0.72
% Activity Relative to UTC (tube formation) (HuVECs; Table 57): 48.3%
% Activity Relative to UTC (tube formation) (HuVECs; Table 59): 100.0%

327902 (antisense eG*eG*e[5mC]*eT*eG*eT*e[5mC]*eA*eA*eT*eT*e[5mC]*eA*eT*eA*eG*eG*eT*e[5mC]*eA*eG) [compound 327902]
TG (triglyceride accumulation) (adipocytes; [2]): 55 percentage of untreated control (UTC)
aP2 mRNA (aP2; [3]): 58 percentage of untreated control (UTC)
HSL mRNA (HSL; [2]): 56 percentage of untreated control (UTC)
GLUT4 mRNA (Glut4; [2]): 15 percentage of untreated control (UTC)
PPAR gamma mRNA (PPARγ; Table 75): 56 percentage of untreated control (UTC)
% Activity Relative to UTC (tube formation) (HuVECs; Table 57): 41.4%

327903 (antisense eA*eA*e[5mC]*eT*eA*eT*eA*e[5mC]*eA*eA*e[5mC]*e[5mC]*eT*eA*e[5mC]*eT*eA*e[5mC]*e[5mC]*eT*e[5mC]*eA) [compound 327903]
TG (triglyceride accumulation) (adipocytes; [5]): 1.20
TG (triglyceride accumulation) (adipocytes; [1]): 0.58
AP2 (mRNA expression) (aP2; Table 15): 1.15
AP2 (mRNA expression) (aP2; Table 16): 0.92
HSL (mRNA expression) (HSL; Table 15): 1.23
HSL (mRNA expression) (HSL; Table 16): 0.80
Glut4 (mRNA expression) (Glut4; Table 15): 1.72
Glut4 (mRNA expression) (Glut4; Table 16): 1.12
PPAR gamma (mRNA expression) (PPARγ; Table 15): 1.19
PPAR gamma (mRNA expression) (PPARγ; Table 16): 0.98
% Activity Relative to UTC (tube formation) (HuVECs; Table 57): 103.5%

327904 (antisense eA*e[5mC]*eT*e[5mC]*eA*e[5mC]*e[5mC]*eG*eA*e[5mC]*eA*eG*e[5mC]*eG*eT*eT*eG*eA*eA*eT*eG*eT*eT) [compound 327904]
TG (triglyceride accumulation) (adipocytes; [3]): 56 percentage of untreated control (UTC)
AP2 mRNA (aP2; [3]): 65 percentage of untreated control (UTC)
HSL mRNA (HSL; [3]): 42 percentage of untreated control (UTC)
GLUT4 mRNA (Glut4; [3]): 40 percentage of untreated control (UTC)
PPAR gamma mRNA (PPARγ): 54 percentage of untreated control (UTC)
% Activity Relative to UTC (tube formation) (HuVECs; Table 57): 89.7%

327905 (antisense e[5mC]*eA*eG*eA*e[5mC]*eT*e[5mC]*e[5mC]*eG*eG*eT*eG*eG*eA*eA*eT*eG*eA*eA*eG*eG*eA) [compound 327905]
TG (triglyceride accumulation) (adipocytes; [5]): 0.69
TG (triglyceride accumulation) (adipocytes; [1]): 0.58
AP2 (mRNA expression) (aP2; Table 15): 1.14
AP2 (mRNA expression) (aP2; Table 16): 0.68
HSL (mRNA expression) (HSL; Table 15): 1.11
HSL (mRNA expression) (HSL; Table 16): 0.69
Glut4 (mRNA expression) (Glut4; Table 15): 0.84
Glut4 (mRNA expression) (Glut4; Table 16): 0.40
PPAR gamma (mRNA expression) (PPARγ; Table 15): 0.54
PPAR gamma (mRNA expression) (PPARγ; Table 16): 0.83
% Activity Relative to UTC (tube formation) (HuVECs; Table 57): 48.3%

Source: patent US8178506B2, “Oligomeric compounds and compositions for use in modulation of small non-coding RNAs” (Regulus Therapeutics Inc., priority 2003, dated 2012)
